{
  "source": "patent US4652581A",
  "about": "“Tetrahydroindole derivative as medicament for cerebral apoplexy” (Grelan Pharmaceutical Co., Ltd., priority 1983, dated 1987)",
  "key": {"[1]": {"test_system": "hemorrhagic infarction (rat cerebral infarction model)", "test": "Inhibition of hemorrhagic infarction in cerebral infarction model, ISI injection (Test Example 1A)", "type": "in vivo, Sprague Dowley male rats", "conditions": "intraperitoneal", "protocol": "(§1) (A) A cerebral infarction model was constructed by the following procedure. The bilateral common carotid arteries of Sprague Dowley male rats (body weights 300 to 350 g) in which one of the vertebral arteries was occluded by electrocauterization in accordance with the method of W. Pulsinelli et al (Stroke 10, 267, 1979) were uniformly occluded and made repatent, using clamps, at an interval of 1 hour for the first cycle and thereafter at 30-minute intervals for a total of 4 cycles.\nAfter the final establishment of repatency in this test model and on the second day and onwards, 1 ml/100 g body weight of Glyceol ® Injection [a preparation containing 10 weight % of glycerol, the trademark of Chugai Pharmaceutical Co., Ltd., Japan] was intraperitoneally administered twice daily. The test drug ISI was dissolved in Glyceol ® Injection to a concentration of 0.08 weight % and administered in the same manner as Glyceol ® Injection.\nIn a disease model such as the one used in this experiment, death of animals occurs in many cases as an infarction leads to cerebral edema which compresses the brain stem. Therefore, for the purpose of preventing death due to this cause and ensuring a smooth performance of the experiment, the animals were treated with Glyceol ® Injection which has a relieving effect on cerebral edema.\nThe isolated brains were fixed in 10% formalin. […]"}, "[2]": {"test_system": "hemorrhagic infarction (rat cerebral infarction model)", "test": "Inhibition of hemorrhagic infarction in cerebral infarction model, ISI orally administered (Test Example 1B)", "type": "in vivo, Sprague Dowley male rats", "conditions": "oral, twice daily", "protocol": "as §1\nThe isolated brains were fixed in 10% formalin. For the assessment of hemorrhagic infarction, paraffin-embedded specimens prepared from three different sections passing through the mid-point between the anterior portion of the frontal lobe and the optic chiasm, the optic chiasm and the posterior portion of the mamillary body were used after H.E. stain.\n(B) In the system using the above-mentioned cerebral infarction model, 0.25 ml/100 g body weight of suspension of the test drug ISI in 5% sodium alginate was orally administrated (dose of ISI: 30 mg/kg). To control animals, 0.25 ml/100 g body weight of 5% sodium alginate was orally administered. The administration schedule was twice daily for both groups.\nThe brains submitted to the study were subjected to the same treatment as above, and assessments were made on paraffin-embedded specimens."}, "[3]": {"test_system": "cerebral apoplexy (stroke-prone spontaneously hypertensive rats)", "test": "Effect against cerebral apoplexy in NaCl-loaded stroke-prone spontaneously hypertensive rats (Test Example 2)", "type": "in vivo", "source_text": "Stroke-prone spontaneously hypertensive rats [K. Okamoto et al., Circulation Res. suppl. 34 & 35, 143 (1974)]of 10 weeks aged were fed, in conventional manner, with a 1 weight % aqueous solution of sodium chloride as drinking water [H. Ikeda et al., Europ. J. Pharmacol. 53, 173 (1979)]being employed.\nAnimals were subjected to periodical observation, three times a day, until the symptom of cerebral apoplexy was manifested in all the animals of the control group. The difference between the control group and the test group in the ranking of the symtoms of cerebral apoplexy manifested was subjected to rank sum test.\nIn the test group, each of the animals was orally treated every day with ISI dissolved in 1% gum-arabica solution so that the concentration may become 0.06 weight % at a dose of 0.5 ml/100 g body weight twice a day, starting with the sodium chloride loading. In the control group, each of the animals was treated with 1% gum-arabica solution at a dose of 0.5 ml/100 g body weight in a manner similar to that in the test group.\nThe animals in which the symptom of apoplexy was manifested, after being anesthetized, was treated with intravenous injection of 1% Evans Blue (dosage: 1 ml/kg). After sacrifice by bloodletting, hemorrhage and extravascular extravasation of the dye in the brain and the spinal cord was observed.\nWith paralysis of the limbs, stereotyped behaviour, an extreme loss of\nthose animals were counted as those suffering from C.A.: Excitement,\nHyperirritability, Depression, Epileptic symptom, Hemiplegia, Sudden"}, "[4]": {"test": "Acute toxicity (LD50 in mice)", "conditions": "mouse, in vivo"}},
  "note": "Where two headings read alike, the source gives them in different places.",
  "data": [
    {"smiles": "CC(C)N1CC(O)C2=CC(=NNC(N)=O)C(=O)C=C21", "note": "(centres unmarked) [ISI, 1-isopropyl-3-hydroxy-5-semicarbazono-6-oxo-2,3,5,6-tetrahydroindole]", "values": [
      {"measurement": "Number of cases of hemorrhagic infarction", "setting": "[1]; 0.08% ISI in Glyceol injection, 1 ml/100 g, twice daily, up to 7 days, control (Glyceol injection) 6/20", "value": "1/19"},
      {"measurement": "inhibitory effect on hemorrhagic infarction (significance versus control)", "setting": "[1]; ISI in Glyceol injection vs control group", "value": "inhibitory effect on hemorrhagic infarction was obtained in the ISI group at the significance level of 5%"},
      {"measurement": "Number of cases of hemorrhagic infarction", "setting": "[2]; 30 mg/kg in 5% sodium alginate, control (sodium alginate) 18/43", "value": "9/41"},
      {"measurement": "inhibitory effect on cerebral infarction (significance versus control)", "setting": "[2]; 30 mg/kg, vs control group", "value": "inhibitory effect on cerebral infarction was obtained in the ISI group at the significance level of 5%"},
      {"measurement": "Number of animals suffering from C.A., Total", "setting": "[3]; ISI 3.0 mg/kg, oral twice a day, total, days 20-42 after NaCl loading, control 10/10", "value": "5/10"},
      {"measurement": "Number of animals suffering from C.A.", "setting": "[3]; ISI 3.0 mg/kg, 20 days after NaCl loading, control 0", "value": 1},
      {"measurement": "Number of animals suffering from C.A.", "setting": "[3]; ISI 3.0 mg/kg, 21 days after NaCl loading, control 1", "value": 0},
      {"measurement": "Number of animals suffering from C.A.", "setting": "[3]; ISI 3.0 mg/kg, 23 days after NaCl loading, control 1", "value": 0},
      {"measurement": "Number of animals suffering from C.A.", "setting": "[3]; ISI 3.0 mg/kg, 26 days after NaCl loading, control 1", "value": 0},
      {"measurement": "Number of animals suffering from C.A.", "setting": "[3]; ISI 3.0 mg/kg, 32 days after NaCl loading, control 1", "value": 0},
      {"measurement": "Number of animals suffering from C.A.", "setting": "[3]; ISI 3.0 mg/kg, 33 days after NaCl loading, control 1", "value": 1},
      {"measurement": "Number of animals suffering from C.A.", "setting": "[3]; ISI 3.0 mg/kg, 34 days after NaCl loading, control 1", "value": 0},
      {"measurement": "Number of animals suffering from C.A.", "setting": "[3]; ISI 3.0 mg/kg, 37 days after NaCl loading, control 0", "value": 2},
      {"measurement": "Number of animals suffering from C.A.", "setting": "[3]; ISI 3.0 mg/kg, 39 days after NaCl loading, control 1", "value": 0},
      {"measurement": "Number of animals suffering from C.A.", "setting": "[3]; ISI 3.0 mg/kg, 40 days after NaCl loading, control 1", "value": 0},
      {"measurement": "Number of animals suffering from C.A.", "setting": "[3]; ISI 3.0 mg/kg, 41 days after NaCl loading, control 0", "value": 1},
      {"measurement": "Number of animals suffering from C.A.", "setting": "[3]; ISI 3.0 mg/kg, 42 days after NaCl loading, control 2", "value": 0},
      {"measurement": "effect of ISI against cerebral apoplexy (significance versus control)", "setting": "[3]; oral ISI twice a day, Mann-Whitrey's U-test", "value": 5, "unit": "% significant difference"},
      {"measurement": "LD50", "setting": "[4]; intravenous, read-out: Acute toxicity LD50, intravenous", "value": 350, "unit": "mg/kg"},
      {"measurement": "LD50", "setting": "[4]; oral, read-out: Acute toxicity LD50, oral", "value": "≥ 10000", "unit": "mg/kg"}
    ]}
  ]
}
